Reference: patent US11986450B2, “Methods and compositions for treating infection and inflammation with selenocyanate” (National Jewish Health, priority 2017, dated 2024)

Key:
[1] = test system: macrophage (J774A.1.) cells; conditions: 100 μM HOCl, 400 μM SCN, 15 minutes, viability after 6 hrs
Description: Cells were exposed to 100 μM HOCl and/or 400 μM ^−SCN in PBS for 15 minutes, washed and then placed in fresh media for 6 hrs before viability assessment with flow cytometry (FIG. 7A).

[2] = test system: Human peripheral blood neutrophils activated with PMA; conditions: 20 ng/ml PMA, 200 μM thiocyanate
Description: Cytotoxicity was assessed by measuring lactate dehydrogenase (LDH) release.

[3] = test system: clinical isolate of M. abscessus; assay: NTM killing, exposure to GOX, LPO, SeCN components; type: cell-based; conditions: plated on LB agar immediately after mixing
Description: FIGS. 24A and 24B show —SeCN-mediated killing of NTM requires LPO, but not GOX, while LPO/—SeCn has no effect upon B. Cepacia. […] All conditions with GOX also contained dextrose, the required substrate of GOX for H2O2 production.
Susceptibility of NTM species to both HOSCN- and HOSeCN-mediated killing. […] Given the shorter amount of time necessary for —SeCN-mediated killing of NTM compared to other bacteria species (FIGS. 24A and 24B), the possibility that the mechanism responsible for —SeCN-mediated killing of NTM was unique compared to —SCN-mediated killing of NTM and —SeCN-mediated killing of other species is determined. […] Since killing required LPO, the inventors believe that endogenous H2O2 production by NTM provided the H2O2 required for the generation of HOSeCN via LPO and —SeCN.

[4] = aerosolized isotonic 0.5% (w/v) solution in PBS for 30 minutes
Description: Mice (C57B6) were exposed to an aerosolized isotonic 0.5% (w/v) ^−SCN solution in PBS for 30 minutes (0 hr) and ^−SCN levels in the ELF and serum were determined by HPLC-EC at various time points.

[5] = test system: Pseudomonas aeruginosa (PA) lung infection
Description: FIGS. 8A-8C. […] Wild type (WT) and beta-subunit of the epithelial Na(+) channel (βENaC) Tg Mice were nebulized with 0.5% ^−SCN twice-daily starting 24 hrs post infection. Mice were sacrificed 72 hrs post infection and lung burden of PA was assessed (FIG. 8A), BAL neutrophil counts (FIG. 8B), and BALF KC cytokine (IL-8 analog) levels determined (FIG. 8C).
The inventors have shown critical in vivo proof of principle with inhaled ^−SCN in PA-infected mice (Chandler, J. D., et al. (2015); Chandler, J. D., et al. (2013) Nebulized thiocyanate improves lung infection outcomes in mice. Br J Pharmacol 169, 1166-1177). […] Mice that overexpress a sodium channel, βENaC, have been developed that spontaneously develop lung inflammation and mucous obstructions similar to that reported in subjects with CF (Mall, M., et al. (2004) Increased airway epithelial Na+ absorption produces cystic fibrosis-like lung disease in mice. Nat Med 10, 487-493). This model is useful to differentiate the antimicrobial effect of an agent from its potential anti-inflammatory effects.

[6] = nebulized 0.5%, twice daily, started 1 day after infection, 72 hours

## N#CS [SCN, thiocyanate]
[1]
  Protection from HOCl-mediated necrosis: protects macrophage (J774A.1.) cells from HOCl-mediated necrosis
[2]
  Cytoprotection in activated neutrophils: cytoprotective
[3]
  Killing of NTM with LPO, without GOX: did not kill NTM
[4]
  ELF SCN levels: high ELF ^−SCN levels
  Tolerability of inhaled SCN: well tolerated
[5]; mouse, in vivo
  BAL neutrophil cell counts: decreased
  Lung CFU PA burden: lower lung CFU PA burden
[5]; [6]
  BAL levels of KC (IL-8 analog): decreased
  Body weight loss: less body weight loss
  Lung pyocyanin levels: decreased lung pyocyanin levels
